PubChem BioAssay AID1259408 (Genetic Toxicology Data Bank (GENE-TOX), 2018)
Activity calls are given as the source filed them. How the calls were made is not given here.

System: GENE-TOX genotoxicity assays, various organisms and cells
Assay: GENE-TOX mutagenicity studies
Conditions: for call: Assay Type: In vivo carcinogenicity studies
[1] = Species/Cell Type: Chinese hamster lung (V79) cells, Assay Type: Forward gene mutation at the HPRT or ouabain locus, Assay Code: V79+, Evaluation Type: Evaluation A (Pre-1980)
[2] = Species/Cell Type: Drosophila melanogaster, Assay Type: Sex-linked recessive lethal gene mutation, Assay Code: SRL+, Evaluation Type: Evaluation A (Pre-1980)
[3] = Species/Cell Type: Nonhuman, Assay Code: CCG+L, Evaluation Type: Evaluation A (Pre-1980)
[4] = Species/Cell Type: Saccharomyces cerevisiae, Assay Type: Mitotic recombination or gene conversion, Assay Code: YEC+, Evaluation Type: Evaluation A (Pre-1980)
[5] = Species/Cell Type: Salmonella typhimurium (one or more of the five standard strains: TA98, TA100, TA1535, TA1537, and TA1538), Assay Type: Histidine reverse gene mutation, Ames assay, Assay Code: SAL+, Evaluation Type: Evaluation A (Pre-1980)
[6] = Species/Cell Type: Nonhuman, Assay Code: CCG+, Evaluation Type: Evaluation A (Pre-1980)
[7] = Species/Cell Type: Mouse, Sex: Male, Assay Type: Sperm morphology, Assay Code: SPI-, Evaluation Type: Evaluation A (Pre-1980)
[8] = Species/Cell Type: Nonhuman, Assay Type: Sister-chromatid exchange (SCE) in vivo, Assay Code: SC3+, Evaluation Type: Evaluation B (Post-1980)
[9] = Species/Cell Type: Salmonella typhimurium (one or more of the five standard strains: TA98, TA100, TA1535, TA1537, and TA1538), Assay Type: Histidine reverse gene mutation, Ames assay, Assay Code: SAL+*, Activation: With metabolic activation, Evaluation Type: Evaluation A (Pre-1980)
[10] = Species/Cell Type: Salmonella typhimurium (one or more of the five standard strains: TA98, TA100, TA1535, TA1537, and TA1538), Assay Type: Histidine reverse gene mutation, Ames assay, Assay Code: SALT, Evaluation Type: Evaluation A (Pre-1980)
[11] = Species/Cell Type: Vicia faba, Assay Type: Chromosome aberrations, Assay Code: VIC+, Evaluation Type: Evaluation A (Pre-1980)
[12] = Species/Cell Type: Human, Assay Type: Sister-chromatid exchange (SCE) in vitro, Assay Code: SC1+D, Dose Response: With dose response, Evaluation Type: Evaluation B (Post-1980)
[13] = Species/Cell Type: Nonhuman, Assay Type: Sister-chromatid exchange (SCE) in vitro, Assay Code: SC2+D, Dose Response: With dose response, Evaluation Type: Evaluation B (Post-1980)
[14] = Species/Cell Type: Salmonella typhimurium (one or more of the five standard strains: TA98, TA100, TA1535, TA1537, and TA1538), Assay Type: Histidine reverse gene mutation, Ames assay, Assay Code: SAL-, Evaluation Type: Evaluation A (Pre-1980)
[15] = Species/Cell Type: Syrian hamster embryo (SHE) cells, Assay Type: Cell transformation, clonal assay, Assay Code: CTC-, Evaluation Type: Evaluation A (Pre-1980)

## CCN(CCCl)CCCNc1c2ccc(Cl)cc2nc2ccc(OC)cc12
[1]
  mutagenic call: active; positive
Species/Cell Type: Chinese hamster ovary (CHO) cells, Assay Type: Forward gene mutation at the HPRT locus, Assay Code: CHO+D, Dose Response: With dose response, Evaluation Type: Evaluation A (Pre-1980)
  mutagenic call: active; positive
[2]
  mutagenic call: active; positive
Species/Cell Type: Neurospora crassa, Assay Type: Forward gene mutation, Assay Code: NEF+, Evaluation Type: Evaluation A (Pre-1980)
  mutagenic call: active; positive
Species/Cell Type: Neurospora crassa, Assay Type: Reverse gene mutation, Assay Code: NER+, Evaluation Type: Evaluation A (Pre-1980)
  mutagenic call: active; positive
[3]
  call: active; positive
Species/Cell Type: Rodents, Sex: Male, Assay Type: Dominant lethal test, Assay Code: DLTT, Evaluation Type: Evaluation A (Pre-1980)
  mutagenic call: no conclusion
Species/Cell Type: Saccharomyces cerevisiae, Assay Type: Forward gene mutation, Assay Code: YEF+, Evaluation Type: Evaluation A (Pre-1980)
  mutagenic call: active; positive
[4]
  mutagenic call: active; positive
Species/Cell Type: Saccharomyces cerevisiae, Assay Type: Mitotic recombination or gene conversion, Assay Code: YEH+, Evaluation Type: Evaluation A (Pre-1980)
  mutagenic call: active; positive
Species/Cell Type: Saccharomyces cerevisiae, Assay Type: Reverse gene mutation, Assay Code: YER+, Evaluation Type: Evaluation A (Pre-1980)
  mutagenic call: active; positive
[5]
  mutagenic call: active; positive
Species/Cell Type: Vicia faba, Assay Type: Chromosome aberrations, Assay Code: VIC+D, Dose Response: With dose response, Evaluation Type: Evaluation A (Pre-1980)
  mutagenic call: active; positive

## CC(COc1ccc(C(C)(C)C)cc1)OS(=O)OCCCl (centres undefined)
[6]
  call: active; positive

## [CH3][Hg][O]C(C)=O
Species/Cell Type: Mammalian polychromatic erythrocytes, Assay Type: Micronucleus test, chromosome aberrations, Assay Code: MNTT, Evaluation Type: Evaluation A (Pre-1980)
  mutagenic call: no conclusion
[7]
  mutagenic call: inactive; negative

## Cc1cc2c(c3ccc4ccccc4c13)CCC2=O
Species/Cell Type: Human lymphocytes, Assay Type: Sister-chromatid exchange (SCE) in vitro, Assay Code: SCL+D*, Activation: With metabolic activation, Dose Response: With dose response, Evaluation Type: Evaluation B (Post-1980)
  mutagenic call: active; positive
Species/Cell Type: Human, Assay Type: Sister-chromatid exchange (SCE) in vitro, Assay Code: SC1+D*, Activation: With metabolic activation, Dose Response: With dose response, Evaluation Type: Evaluation B (Post-1980)
  mutagenic call: active; positive
[8]
  mutagenic call: active; positive
[9]
  mutagenic call: active; positive

## O=C(NO)c1ccccc1
[5]
  mutagenic call: active; positive

## [Cd]
Species/Cell Type: Human lymphocytes or leukocytes, Assay Type: Chromosome aberrations in vivo, Assay Code: CY8T, Evaluation Type: Evaluation A (Pre-1980)
  mutagenic call: no conclusion
[3]
  call: active; positive

## O=C(O)C(Cl)(Cl)Cl
Species/Cell Type: Mammalian polychromatic erythrocytes, Assay Type: Micronucleus test, chromosome aberrations, Assay Code: MNT+, Evaluation Type: Evaluation B (Post-1980)
  mutagenic call: active; positive
[10]
  mutagenic call: no conclusion
[11]
  mutagenic call: active; positive

## CN(N=O)C1=Nc2ccc(Cl)cc2C(c2ccccc2)=[N+]([O-])C1
Species/Cell Type: Saccharomyces cerevisiae, Assay Type: Mitotic recombination or gene conversion, Assay Code: YEC+*, Activation: With metabolic activation, Evaluation Type: Evaluation A (Pre-1980)
  mutagenic call: active; positive
Species/Cell Type: Salmonella typhimurium, Assay Type: Forward and reverse gene mutation, host-mediated assay, Assay Code: HMA+, Evaluation Type: Evaluation A (Pre-1980)
  mutagenic call: active; positive

## CC(=O)Nc1nc(-c2cc([N+](=O)[O-])c[nH]2)cs1
[10]
  mutagenic call: no conclusion

## Nc1ccc2c(c1)Cc1cc(N)ccc1-2
[5]
  mutagenic call: active; positive

## CCO
Species/Cell Type: Arabidopsis species, Assay Type: Gene mutation, Assay Code: ARM-, Evaluation Type: Evaluation A (Pre-1980)
  mutagenic call: inactive; negative
Species/Cell Type: Aspergillus nidulans, Assay Type: Forward gene mutation, Assay Code: ASF-, Evaluation Type: Evaluation A (Pre-1980)
  mutagenic call: inactive; negative
Species/Cell Type: Fischer rat embryo (RLV/1706) cells, Assay Type: Cell transformation, viral enhanced, Assay Code: CTR-, Evaluation Type: Evaluation A (Pre-1980)
  mutagenic call: inactive; negative
Species/Cell Type: Human lymphocytes, Assay Type: Sister-chromatid exchange (SCE) in vitro, Assay Code: SCL+D, Dose Response: With dose response, Evaluation Type: Evaluation B (Post-1980)
  mutagenic call: active; positive
Species/Cell Type: Human lymphocytes, Assay Type: Sister-chromatid exchange (SCE) in vitro, Assay Code: SCL-, Evaluation Type: Evaluation A (Pre-1980)
  mutagenic call: inactive; negative
[12]
  mutagenic call: active; positive
Species/Cell Type: Human, Assay Type: Sister-chromatid exchange (SCE) in vitro, Assay Code: SC1-, Evaluation Type: Evaluation A (Pre-1980)
  mutagenic call: inactive; negative
Species/Cell Type: Mammalian polychromatic erythrocytes, Assay Type: Micronucleus test, chromosome aberrations, Assay Code: MNT-, Evaluation Type: Evaluation A (Pre-1980)
  mutagenic call: inactive; negative
[7]
  mutagenic call: inactive; negative
Species/Cell Type: Neurospora crassa, Assay Type: Aneuploidy, chromosome aberrations, Assay Code: NEN-, Evaluation Type: Evaluation A (Pre-1980)
  mutagenic call: inactive; negative
Species/Cell Type: Nonhuman, Assay Type: Chromosome aberrations in vitro, Assay Code: CY&-, Evaluation Type: Evaluation A (Pre-1980)
  mutagenic call: inactive; negative
Species/Cell Type: Nonhuman, Assay Code: CCG-L, Evaluation Type: Evaluation A (Pre-1980)
  call: inactive; negative
[13]
  mutagenic call: active; positive
Species/Cell Type: Nonhuman, Assay Type: Sister-chromatid exchange (SCE) in vitro, Assay Code: SC2-, Evaluation Type: Evaluation A (Pre-1980)
  mutagenic call: inactive; negative
[8]
  mutagenic call: active; positive
Species/Cell Type: Rodents, Sex: Male, Assay Type: Dominant lethal test, Assay Code: DLT+, Evaluation Type: Evaluation A (Pre-1980)
  mutagenic call: active; positive
[14]
  mutagenic call: inactive; negative
[15]
  mutagenic call: inactive; negative
Species/Cell Type: Tradescantia species, Assay Type: Gene mutation, Assay Code: TRM+D, Dose Response: With dose response, Evaluation Type: Evaluation A (Pre-1980)
  mutagenic call: active; positive
[11]
  mutagenic call: active; positive

## Cc1cccc2cc3c(ccc4ccccc43)cc12
[3]
  call: active; positive
Species/Cell Type: Nonhuman, Assay Type: Sister-chromatid exchange (SCE) in vitro, Assay Code: SC2+, Evaluation Type: Evaluation B (Post-1980)
  mutagenic call: active; positive
[9]
  mutagenic call: active; positive
[15]
  mutagenic call: inactive; negative

## [Cl][Al]([Cl])[Cl]
Species/Cell Type: Bacillus subtilis (H17 vs M45), Assay Type: Rec-assay, spot test, DNA effects (bacterial DNA repair), Assay Code: REW-, Evaluation Type: Evaluation A (Pre-1980)
  mutagenic call: inactive; negative
Species/Cell Type: Nonhuman bone marrow, Assay Type: Chromosome aberrations, in vivo, Assay Code: CY#+, Evaluation Type: Evaluation A (Pre-1980)
  mutagenic call: active; positive
Species/Cell Type: Syrian hamster embryo (SA7/SHE) cells, Assay Type: Cell transformation, viral enhanced, Assay Code: CT7-, Evaluation Type: Evaluation A (Pre-1980)
  mutagenic call: inactive; negative

## C#CC(C)N(C)C(=O)Nc1ccc(Cl)cc1 (centres undefined)
Species/Cell Type: Saccharomyces cerevisiae, Assay Type: Mitotic recombination or gene conversion, Assay Code: YEC-, Evaluation Type: Evaluation A (Pre-1980)
  mutagenic call: inactive; negative

## C1=CC2C3C=CC(C3)C2C1 (centres undefined)
Species/Cell Type: Saccharomyces cerevisiae, Assay Type: Mitotic recombination or gene conversion, Assay Code: YEH-, Evaluation Type: Evaluation A (Pre-1980)
  mutagenic call: inactive; negative
[14]
  mutagenic call: inactive; negative

## O=NN(CCCl)C(=O)NCCCl
[1]
  mutagenic call: active; positive
[2]
  mutagenic call: active; positive
Species/Cell Type: Human lymphocytes, Assay Type: Sister-chromatid exchange (SCE) in vitro, Assay Code: SCL+, Evaluation Type: Evaluation B (Post-1980)
  mutagenic call: active; positive
[12]
  mutagenic call: active; positive
[6]
  call: active; positive
[13]
  mutagenic call: active; positive
Species/Cell Type: Nonhuman, Assay Type: Sister-chromatid exchange (SCE) in vivo, Assay Code: SC3+D, Dose Response: With dose response, Evaluation Type: Evaluation B (Post-1980)
  mutagenic call: active; positive
[4]
  mutagenic call: active; positive
[5]
  mutagenic call: active; positive
